Test results: patent US20130177994A1, “METHODS FOR QU[…] DETERMINATION OF THE d- AND l- ENANTIOMERS OF AMPHETAMINE AND METHAMPHETAMINE” (CLINICAL REFERENCE LABORATORY, INC., priority 2012, published 2013)

Assay: Donor sample analysis by chiral LC/MS/MS (oral fluid)
Format: in vivo
Source text: HPLC conditions were adapted from a separation method posted on the manufacturer's website (Sigma-Aldrich) using UV detection. A Supelco Astec Chirobiotic® V2 chiral column (5 μm particle size, 2.1×250 mm) from Sigma-Aldrich was used to achieve the chiral separation of the enantiomers for amphetamine and methamphetamine. The Chirobiotic® V2 column employs vancomycin as the chiral stationary phase to induce separation. The mobile phase consisted of 99.89:0.1:0.01 methanol:acetic acid:ammonium hydroxide (v/v/v) with a flow rate of 0.5 mL/min. The column temperature was 30° C. The HPLC employed was a Shimadzu Nexera UPLC system (Kyoto, Japan) operating at typical HPLC pressures. The injection volume for the method was 5 μL.
Detection was performed by an API 4000 triple-quadrupole mass spectrometer from AB Sciex (Foster City, Calif., USA). Column eluent was introduced into the mass spectrometer using the Turbolonspray® source operating in the positive ionization mode. Multiple-reaction monitoring (MRM) was used to analyze and detect each compound with a high degree of selectivity. The ionspray voltage was set at 5000V and the source temperature was 550° C. Parameters such as declustering potential (DP), collision energy (CE) and entrance and exit potentials (EP and CXP) were optimized for each analyte. The total analysis time for the method is 10 minutes.
Sample extraction was accomplished by aliquoting 200 μL of oral fluid sample into a 16×75 mm culture tube and adding 50 μL of internal standard (200 ng/mL racemic D11-amphetamine and […]). The sample was then treated with 25 μL of 10% sodium periodate solution and allowed to sit for 30 minutes after mixing. A 500 μL aliquot of 0.1 M phosphoric acid was added to each sample and mixed prior to transfer to the SPE wells.
The Agilent SPEC-DAU 96-well SPE plate was conditioned with 1 mL of methanol followed by 0.5 mL of 0.1 M phosphoric acid. Nitrogen gas was used to apply positive pressure for all SPE steps to induce a flow rate of about 1 to 2 mL per minute. […]
Several donor samples have been analyzed by this method. […]

Structure (SMILES)	% d-amphetamine in samples containing amphetamine (9 out of 25 donor samples, consistent with Adderall use)	% d-amphetamine in samples containing amphetamine (the remaining donor samples) [%]	% d-methamphetamine in samples containing methamphetamine (all donor samples containing methamphetamine) [%]
C[C@H](N)Cc1ccccc1 [d-Amphetamine, d-amphetamine]	approximately 70%	100	–
CN[C@@H](C)Cc1ccccc1 [d-Methamphetamine, d-methamphetamine]	–	–	> 90
